Here are results for 22 compounds from ChEMBL document CHEMBL1149250, “Optimization of protein kinase CK2 inhibitors derived from 4,5,6,7-tetrabromobenzimidazole” (J Med Chem, 2004).

For this experiment, the target named is Casein kinase II (Homo sapiens, UniProt P19784+P67870+P68400). Nature of the experiment: Inhibition of CK2. Format: protein-complex assay.

Where only a bound is given, the exact number is not on record here.

Sequence of Casein kinase II (P67870 whole entry): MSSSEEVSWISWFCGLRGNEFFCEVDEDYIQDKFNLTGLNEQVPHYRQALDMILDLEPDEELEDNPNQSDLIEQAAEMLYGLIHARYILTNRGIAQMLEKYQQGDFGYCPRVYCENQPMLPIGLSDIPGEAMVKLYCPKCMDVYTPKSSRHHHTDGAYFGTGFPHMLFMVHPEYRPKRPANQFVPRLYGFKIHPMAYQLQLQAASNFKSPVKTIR
Sequence of Casein kinase II (P68400 whole entry): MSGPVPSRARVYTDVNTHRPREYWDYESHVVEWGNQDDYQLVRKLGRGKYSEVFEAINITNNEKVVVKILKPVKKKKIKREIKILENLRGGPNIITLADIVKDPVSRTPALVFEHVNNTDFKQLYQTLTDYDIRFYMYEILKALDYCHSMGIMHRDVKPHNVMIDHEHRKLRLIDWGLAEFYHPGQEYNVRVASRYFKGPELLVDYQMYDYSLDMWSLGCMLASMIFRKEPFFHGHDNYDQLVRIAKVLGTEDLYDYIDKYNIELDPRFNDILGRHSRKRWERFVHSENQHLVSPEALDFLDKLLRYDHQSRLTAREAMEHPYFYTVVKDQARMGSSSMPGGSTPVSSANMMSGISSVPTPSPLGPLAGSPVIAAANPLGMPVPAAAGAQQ
Sequence of Casein kinase II (P19784 whole entry): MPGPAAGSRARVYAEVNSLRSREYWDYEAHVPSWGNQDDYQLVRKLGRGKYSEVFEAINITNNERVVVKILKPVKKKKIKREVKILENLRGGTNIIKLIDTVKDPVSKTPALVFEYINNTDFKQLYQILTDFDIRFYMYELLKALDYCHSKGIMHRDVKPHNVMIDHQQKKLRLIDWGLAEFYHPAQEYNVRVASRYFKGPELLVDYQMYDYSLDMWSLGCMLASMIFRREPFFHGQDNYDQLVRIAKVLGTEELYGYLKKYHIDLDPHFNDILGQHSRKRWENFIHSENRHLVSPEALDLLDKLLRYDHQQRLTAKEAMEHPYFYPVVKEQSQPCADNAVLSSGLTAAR

One may read the IC50 as the concentration that gives 50% inhibition. By Ki is commonly meant a dissociation constant, usually derived from enzyme kinetics or from competition with a known ligand. Low readings indicate tighter binding, high ones weaker binding. Consider `CSc1nc2c(Br)c(Br)c(Br)c(Br)c2n1C`, for which the IC50 was 600 nM and the affinity, expressed as Ki, was 360 nM.
For `OCCNc1nc2c(Br)c(Br)c(Br)c(Br)c2[nH]1` the same measures were 270 nM and 130 nM.
For `O=c1[nH]c2c(Br)c(Br)c(Br)c(Br)c2[nH]1` the same measures were 360 nM and 150 nM.
The compound `CNc1nc2c(Br)c(Br)c(Br)c(Br)c2[nH]1` showed an IC50 of 210 nM and a Ki of 90 nM.
In turn, `O=[N+]([O-])c1ccc(CSc2nc3c(Br)c(Br)c(Br)c(Br)c3[nH]2)cc1` registered an IC50 of 3480 nM.
`CC(O)CNc1nc2c(Br)c(Br)c(Br)c(Br)c2[nH]1` (stereo not given) showed an IC50 of 280 nM and an inhibitory constant (Ki) of 140 nM.
For `O=C(O)CSc1nc2c(Br)c(Br)c(Br)c(Br)c2[nH]1` the same measures were 250 nM and 180 nM.
For `CCOc1nc2c(Br)c(Br)c(Br)c(Br)c2n1C`, the IC50 is greater than 40000 nM.
In the case of `OCC(O)CSc1nc2c(Br)c(Br)c(Br)c(Br)c2[nH]1` (stereo not given), half-maximal inhibition (IC50) was put at 150 nM and the Ki turned out to be 140 nM.
For `NC(=O)Cn1c(Br)nc2c(Br)c(Br)c(Br)c(Br)c21` the same measures were 1570 nM and 1900 nM.
For `Cn1c(=O)[nH]c2c(Br)c(Br)c(Br)c(Br)c21` the same measures were 390 nM and 200 nM.
Take `Nc1nc2c(Br)c(Br)c(Br)c(Br)c2[nH]1`: the 50% inhibitory concentration (IC50) was found to be 300 nM and the Ki stood at 90 nM.
The compound `CSc1nc2c(Br)c(Br)c(Br)c(Br)c2[nH]1` showed an IC50 of 250 nM and a Ki of 70 nM.
`CN(C)CCNc1nc2c(Br)c(Br)c(Br)c(Br)c2[nH]1` returned an IC50 of 250 nM and a Ki of 160 nM.
As for `CC(C)Nc1nc2c(Br)c(Br)c(Br)c(Br)c2n1C`, the IC50 was found to be 180 nM and the Ki was 190 nM.
On to `CN(C)c1nc2c(Br)c(Br)c(Br)c(Br)c2n1C`, for which the IC50 came out at 130 nM and the inhibition constant Ki is 200 nM.
For `CCOC(=O)CSc1nc2c(Br)c(Br)c(Br)c(Br)c2[nH]1`, the IC50 is 1550 nM.
As to `C=CCn1c(Br)nc2c(Br)c(Br)c(Br)c(Br)c21`, the half-inhibitory concentration (IC50) was 880 nM and the affinity, expressed as Ki, was 630 nM.
For `Cn1c(Br)nc2c(Br)c(Br)c(Br)c(Br)c21`, in that order: 430 nM and 540 nM.
`CC(C)Oc1nc2c(Br)c(Br)c(Br)c(Br)c2n1C` registered an IC50 of 20400 nM.
Take `Brc1nc2c(Br)c(Br)c(Br)c(Br)c2[nH]1`: the IC50 came to 740 nM and the Ki worked out at 230 nM.
For `CC(C)Nc1nc2c(Br)c(Br)c(Br)c(Br)c2[nH]1`, in that order: 160 nM and 60 nM.
